From patent publication US10154973B2, “Quinone compounds for treating APE1 mediated diseases” (Indiana University Research and Technology Corporation, priority 2011, dated 2018)
pIC50: −log10 of the molar value. Read-outs that look alike come from different tables or passages of the source.

Columns and labels:
pGF-NFκB in Panc1 cells = test: NFκB luciferase reporter assay in Panc1 pancreatic cancer cells; assay type: cell-based; details: Homo sapiens, PANC-1; luciferase activity 40 hrs after treatment; stable pGF-NFκB; read-out: Panel IC50
Method: (§1) Using lentiviral transcriptional reporter vectors, pGreenFire-NFkB, and pGreenFire-mCMV (negative control), from System Biosciences Inc. (Mountainview, Calif.), HEK293-T cells (Lonza, Inc. Allendale, N.J.) are transfected with the constructs and the media containing the viral supernatants is collected. To generate stably expressing reporter cell lines, cancer cell lines are infected with the viral supernatant and the cells are selected with puromycin ([…]) for 5 days. For the experiments, test compound is added and left on the cells before being assayed for luciferase activity. SKOV-3X, Panc1, and SF767 cells with the stable pGF-NFκB are treated with test compounds and assayed 40 hrs later for luciferase activity. Panc1 is a pancreatic cancer cell line; SF767 is the glioma cell line. IC50 values for test compounds are determined.

pGF-NFκB in SF767 cells = test: NFκB luciferase reporter assay in SF767 glioma cells; assay type: cell-based; details: SF767 glioma cell line; luciferase activity 40 hrs after treatment; stable pGF-NFκB
Method: as §1

Hey-C2 = test: Growth inhibition of ovarian cancer cells, Hey-C2; assay type: cell-based; details: ovarian cancer cell line
Method: (§2) Test compounds are assayed for growth inhibition ability against two 2 ovarian cancer cell lines. IC50 values for test compounds are determined.

Skov-3X = test: Growth inhibition of ovarian cancer cells, Skov-3X; assay type: cell-based; details: ovarian cancer cell line
Method: as §2

Pharmacokinetics in mice = details: mouse, in vivo, approximate values
Method: The pharmacokinetics of test compounds are evaluated in mice using conventional methods, using oral (25 mg/kg), intraperitoneal (25 mg/kg), and intravenous routes (5 mg/kg) of administration. The following approximate Cmax (ng/mL) values for test compounds are determined.

Ape1 = Ape1 (Homo sapiens, UniProt P27695); test: Redox EMSA assay; assay type: biochemical; details: electrophoresis, 0.02 mM DTT
Ape1, sequence (P27695 whole entry): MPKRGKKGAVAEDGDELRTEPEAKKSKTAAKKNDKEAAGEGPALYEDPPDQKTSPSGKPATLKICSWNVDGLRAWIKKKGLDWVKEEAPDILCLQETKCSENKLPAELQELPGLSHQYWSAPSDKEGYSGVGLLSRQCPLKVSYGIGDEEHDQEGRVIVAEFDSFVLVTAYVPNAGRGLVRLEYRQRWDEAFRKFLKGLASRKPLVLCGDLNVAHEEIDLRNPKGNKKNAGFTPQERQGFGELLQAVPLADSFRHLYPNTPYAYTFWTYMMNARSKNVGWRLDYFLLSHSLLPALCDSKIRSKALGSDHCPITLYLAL
Method: Conventional electrophoresis measuring Ape1 expression with 0.02 mM DTT is used to evaluate test compounds. […] Additional details are described in Fishel et al. Mol Cancer Ther. 2011 September; 10(9):1698-708 & Luo et al., Antioxid Redox Signal. 2008 November; 10(11):1853-67.

NFkB = test: Ape1/Ref1 transcription factor activation (NFkB transactivation); assay type: cell-based; details: Hey-C2, SF767, Panc1, and Skov-3X cell lines
Description: The DNA base excision-repair pathway is responsible for the repair of DNA damage caused by oxidation/alkylation and protects cells against the effects of endogenous and exogenous agents. Removal of the damaged base creates a baseless (AP) site. AP endonuclease1 (Ape1) acts on this site to continue the BER-pathway repair. Failure to repair baseless sites leads to DNA strand breaks and cytotoxicity. In addition to the repair role, Ape1 also functions as a major redox-signaling factor to reduce and activate transcription factors such as AP1, p53, HIF-1alpha, and others that control the expression of genes important for cell survival and cancer promotion and progression. Thus, the Ape1 protein interacts with proteins involved in DNA repair, growth-signaling pathways, and pathways involved in tumor promotion and progression. Test compounds are evaluated for activity in decreasing transactivation of transcription factors.

PaCa-2 cells = test: Pancreatic cancer cell xenograft; assay type: in vivo; details: orally 25 mg/kg twice daily for 18 days; PaCa-2 s.c. in NOD/SCID mice; FIG. 1
Method: PaCa-2 cells (2.5×10^6) in 0.2 mL of DMEM media were implanted s.c. into the right flanks of NOD/SCID mice. Test compounds are dissolved in 4% CremophorEL:EtOH (1:1)/saline solution or methylcellulose (0.5%, Sigma). When tumor volumes are greater than about 100 mm^3, test compounds are administered, such as orally, twice daily, 8 hours apart, at 25 mg/kg for 10 to 18 days (5 days on 2 days off schedule). Tumors are measured biweekly and followed for approximately 6 weeks. Tumor volumes are monitored by caliper measurement [tumor volume=length×(perpendicular width)2×0.5] and the average tumor volume in mm^3 for each treatment group is plotted. Treatment corresponds to days 1 to 15. Average tumor volume±SE for the vehicle compared to test compounds (n=7) are analyzed by statistical analysis. Additional details are described in Fishel et al. Mol Cancer Ther. 2011 September; 10(9):1698-708.

Question: With COC1=C(C=C(C)C(=O)N(C)C)C(=O)c2ccccc2C1=O [Example 5a] as the compound, how does the pIC50 (pGF-NFκB in Panc1 cells) read?
Answer: 5.30

Question: What about the pIC50 (pGF-NFκB in SF767 cells) of the same compound?
Answer: 5.00

Question: What about the pIC50 (Hey-C2) of the same compound?
Answer: 4.74

Question: And the pIC50 (Skov-3X)?
Answer: 4.77

Question: And the Cmax (Pharmacokinetics in mice; intravenous 5 mg/kg, read-out: IV Cmax)?
Answer: 200 ng/mL

Question: What about the Cmax (Pharmacokinetics in mice; ip, intraperitoneal 25 mg/kg, read-out: IP Cmax) of the same compound?
Answer: 2000 ng/mL

Question: And the Cmax (Pharmacokinetics in mice; oral 25 mg/kg, read-out: Oral Cmax)?
Answer: 200 ng/mL

Question: Which results are given for CCCC(=CC1=C(OC)C(=O)c2ccccc2C1=O)C(=O)N(CC)CC [Example 5c]?
Answer: pIC50 (pGF-NFκB in Panc1 cells): 5.10; pIC50 (pGF-NFκB in SF767 cells): 4.74; pIC50 (Hey-C2): 4.60; pIC50 (Skov-3X): 4.52

Question: With CCCC(=CC1=C(OC)C(=O)c2ccccc2C1=O)C(=O)NOC [Example 5d] as the compound, how does the pIC50 (pGF-NFκB in Panc1 cells) read?
Answer: 5.15

Question: What about the pIC50 (pGF-NFκB in SF767 cells) of the same compound?
Answer: 5.00

Question: What about the pIC50 (Hey-C2) of the same compound?
Answer: 4.96

Question: And the pIC50 (Skov-3X)?
Answer: 5.00

Question: What does the source list for CCCCCCCCCC(=CC1=C(C)C(=O)C(OC)=C(OC)C1=O)C(=O)NOC [Example 6a]?
Answer: concentration showing significant signal reduction (Ape1): 20 µM; Ape1 expression knock-down compared to E3330 (Ape1; in vitro): improved expression knock-down compared to E3330; % transactivation of NFkB (NFkB): significant decrease; pIC50 (pGF-NFκB in Panc1 cells): 5.05; pIC50 (pGF-NFκB in SF767 cells): 4.92; pIC50 (Hey-C2): 4.55; pIC50 (Skov-3X): 4.42; tumor volume compared to untreated control (PaCa-2 cells): significant reduction in tumor volume

Question: With CCCCCCCCCC(=CC1=C(C)C(=O)C(OC)=C(OC)C1=O)C(=O)N(C)OC [Example 6b] as the compound, how does the pIC50 (pGF-NFκB in Panc1 cells) read?
Answer: 5.00

Question: What about the pIC50 (pGF-NFκB in SF767 cells) of the same compound?
Answer: 4.74

Question: What about the pIC50 (Hey-C2) of the same compound?
Answer: 4.66

Question: What about the pIC50 (Skov-3X) of the same compound?
Answer: 4.49

Question: For CCCCCCCCC/C(=C\C1=C(C)C(=O)C(OC)=C(OC)C1=O)C(=O)O [Example E3330, reference compound], which “concentration showing significant signal reduction” value (Ape1) is on record?
Answer: 30 µM

Question: And the pIC50 (pGF-NFκB in Panc1 cells)?
Answer: 4.28

Question: What about the pIC50 (pGF-NFκB in SF767 cells) of the same compound?
Answer: 4.10

Question: And the pIC50 (Hey-C2)?
Answer: ~4.00

Question: What about the pIC50 (Skov-3X) of the same compound?
Answer: ~4.00
